Measurements as given in patent US20260216204A1, “METHODS FOR TREATING LOWER RISK MYELODYSPLASTIC SYNDROME” (Constellation Pharmaceuticals, Inc., priority 2022, published 2026).

How the values were obtained:
[1] = system: IL-10 release of primary MDS patient PBMCs stimulated with LPS; experiment: Cytokine release of LPS-stimulated primary MDS patient PBMCs (eight-point titration): IL-10; type: cell-based, human; conditions: 5 μM to 8.2 nM, normalized to DMSO only, n=7-10 donors, FIG. 3
Protocol: (§1) Primary MDS patient samples (cryopreserved peripheral blood mononuclear cells (PBMCs)) were purchased from Discovery Life Sciences. For sample selection, we chose patients with low blast count (ideally below 5%), excluded patients with multilineage dysplasia and (if available) checked blood parameters such as white blood cell count and disease staging notes in order to select patients that show LR-MDS characteristics. Freshly thawed PBMCs were seeded at 50 000 cells/well in a 96-well flat bottom plate. 0.001 μg/mL lipopolysaccharide (LPS-B5, Invivogen) were added to induce IL-6 production. […] After centrifugation, the supernatant of the cells was collected and IL-6 protein in the supernatant was quantified using Human IL-6 Kit (V-PLEX, Meso Scale Discovery). The assay plates were read on a Meso Sector S600. […] The half maximal inhibitory concentration (IC50) was calculated by logarithmic transformation of the compound concentrations and applying “log(inhibitor) vs. response—variable slope (four parameters)”—function. […] After centrifugation, the supernatant of the cells was collected and IFNγ, TNFα, IL-6, IL-8 or IL-10 protein in the supernatant was quantified using Proinflammatory Panel 1 Human Kit (IFNγ, TNFα, IL-6 and IL-10) or Human IL-8 Kit (both V-PLEX, Meso Scale Discovery). The assay plates were read on a Meso Sector S600. […]

[2] = system: erythrocyte progenitors in bone marrow biopsy; conditions: semi-quantitative CD71 IHC, baseline vs Week 24, 22 out of 37; cited from earlier work
[3] = system: CD34+ cells isolated from blood samples of healthy donors and MF patients; conditions: cited from earlier work
[4] = system: CD34+ stem cells derived from LR-MDS donors; experiment: Erythropoiesis of hematopoietic stem cells (CD34+) isolated from MDS patient bone marrow, flow cytometry; type: cell-based, human; conditions: pelabresib monohydrate 500 nM to 31.25 nM tested; FIG. 2 at 250 nM with erythroid expansion supplement, day 7, n=2 donors
Description: Primary MDS patient samples (cryopreserved bone marrow mononuclear cells (BMMCs)) were purchased from Discovery Life Sciences. For sample selection, we chose patients with low blast count (ideally below 5%), excluded patients with multilineage dysplasia and (if available) checked blood parameters such as white blood cell count and disease staging notes in order to select patients that show LR-MDS characteristics. Hematopoietic stem cells (CD34+) were isolated with EasySep Human CD34+ selection Kit II (StemCell Technologies) using freshly thawed cells. Cells were seeded at 1000 cells/well (for erythropoiesis) or 2500 cells/well (for CC100 differentiation mix) in a 96-flat-well plate. Differentiation cocktails StemSpan™ Erythroid Expansion Supplement (for Erythropoieses) or StemSpan™ CC100 (differentiation mix) were added according to the manufacturer's instructions. A 5-point titration series of pelabresib monohydrate with concentrations ranging from 500 nM to 31.25 nM was tested in duplicate. “DMSO only” treated wells served as control and were also used to prepare flow cytometry controls (such as FMOs). […] On day 7 cells were analysed via flow cytometry. […] Among the viable cells the percentage of CD34+CD71+ (megakaryocyte-erythroid progenitors (MEP)) and percentage of CD34−CD71+ (pro-erythroblasts/erythroblasts (pro-EB/EB)) was determined and depicted in GraphPad Prism 8 per donor.

[5] = system: inflammatory cytokine regulated by the NF-κB pathway; conditions: lymphoma and MF patients; cited from earlier work
[6] = system: transfusion dependent MF patients; conditions: Arm 2, pelabresib in addition to ruxolitinib; cited from earlier work
advanced MF patients = conditions: cited from earlier work
[7] = system: IL-6 release of primary MDS patient PBMCs stimulated with LPS; experiment: Cytokine release of LPS-stimulated primary MDS patient PBMCs (eight-point titration): IL-6; type: cell-based, human; conditions: 5 μM to 8.2 nM, normalized to DMSO only, n=7-10 donors, FIG. 3
Protocol: as §1

[8] = system: TNFα release of primary MDS patient PBMCs stimulated with LPS; experiment: Cytokine release of LPS-stimulated primary MDS patient PBMCs (eight-point titration): TNFα; type: cell-based, human; conditions: 5 μM to 8.2 nM, normalized to DMSO only, n=7-10 donors, FIG. 3
Protocol: as §1

[9] = system: IL-6 release of primary MDS patient PBMCs stimulated with LPS; experiment: IL-6 release of LPS-stimulated primary MDS patient PBMCs, electrochemiluminescence immunoassay (nine-point titration); type: cell-based, human; conditions: n=2 donors, FIG. 1
Protocol: This study was performed to evaluate the anti-inflammatory activity of pelabresib on MDS patient cells from different donors. The NF-kB pathway is central in regulating cytokines such as TNF-α, IL-6, and IL-8 which are elevated in MDS patients and play role in the pathogenesis of myelodysplastic syndromes (Ref: e.g. doi: 10.1097/MD.0000000000015844). Primary MDS patient samples (cryopreserved peripheral blood mononuclear cells (PBMCs)) were purchased from Discovery Life Sciences. For sample selection, we chose patients with low blast count (ideally below 5%), excluded patients with multilineage dysplasia and (if available) checked blood parameters such as white blood cell count and disease staging notes in order to select patients that show LR-MDS characteristics. Freshly thawed PBMCs were seeded at 50 000 cells/well in a 96-well flat bottom plate. 0.001 μg/mL lipopolysaccharide (LPS-B5, Invivogen) were added to induce IL-6 production. […] After centrifugation, the supernatant of the cells was collected and IL-6 protein in the supernatant was quantified using Human IL-6 Kit (V-PLEX, Meso Scale Discovery). The assay plates were read on a Meso Sector S600. […] The half maximal inhibitory concentration (IC50) was calculated by logarithmic transformation of the compound concentrations and applying “log(inhibitor) vs. response—variable slope (four parameters)”—function.

[10] = system: IL-8 release of primary MDS patient PBMCs stimulated with LPS; experiment: Cytokine release of LPS-stimulated primary MDS patient PBMCs (eight-point titration): IL-8; type: cell-based, human; conditions: 5 μM to 8.2 nM, normalized to DMSO only, n=7-10 donors, FIG. 3
Protocol: as §1

[11] = system: IFNγ release of primary MDS patient PBMCs stimulated with LPS; experiment: Cytokine release of LPS-stimulated primary MDS patient PBMCs (eight-point titration): IFNγ; type: cell-based, human; conditions: 5 μM to 8.2 nM, normalized to DMSO only, n=7-10 donors, FIG. 3
Protocol: as §1

## Cc1noc2c1-c1ccccc1C(c1ccc(Cl)cc1)=N[C@H]2CC(N)=O [pelabresib, 2-((4S)-6-(4-chlorophenyl)-1-methyl-4H-benzo[c]isoxazolo[4,5-e]azepin-4-yl)acetamide]
[1]
  release of IL-10: suppressed release
[2]
  patients with an increase in erythrocyte progenitors: 59%
[3]; CD34+ cells from healthy donors and MF patients, cytokine cocktail
  erythrocyte maturation: promotes erythrocyte maturation
[3]; in the presence of ruxolitinib, dose-dependent
  suppressive effects of ruxolitinib on erythroid differentiation: rescued the suppressive effects
[4]
  differentiation of CD34+ stem cells towards erythropoiesis: enhanced the differentiation
[5]
  levels of inflammatory cytokine regulated by the NF-κB pathway: can decrease the levels
[6]
  median duration of RBC-TI: 39 weeks
  transfusion dependent MF patients who achieved RBC-TI ≥12 weeks: 36%
Advanced MF patients; Arm 1, monotherapy
  median duration of RBC-TI: 44 weeks
  transfusion dependent relapsed/refractory MF patients who achieved RBC-TI ≥12 weeks: 21%
Advanced MF patients; monotherapy, 11 out of 19
  patients who achieved ≥1.5 g/dL increase in Hgb levels without transfusion: 57.9%
[7]
  release of IL-6: suppressed release
[8]
  release of TNFα: suppressed release
[9]; 5 μM to 3.3 nM, dose dependent
  IL-6 release in donor PBMCs: suppressed IL-6 release
[9]; Homo sapiens, PBMC, 0.001 μg/mL LPS, approx. 18 hours, normalized to DMSO only control
  IC50: 248 nM
[10]
  release of IL-8: suppressed release
[11]
  release of IFNγ: suppressed release
